Assay results from US5753631A, “Intercellular adhesion mediators” (Cytel Corporation, priority 1995, dated 1998).

Key:
[1] = test system: histamine induced leukocyte rolling in rat mesenteric venules; assay: Histamine induced leukocyte rolling and adherence in rat mesenteric venules (intravital microscopy); type: in vivo, rat (male Sprague-Dawley); details: for effect on histamine induced leukocyte rolling: 10^-5 M histamine, FIG. 15; for Erythrocyte velocity / Leukocyte adherence / Leukocyte emigration / Venular diameter / Wall shear rate: with histamine 10^-5 M, Z, SLN 10 mg/Kg i.v., antibodies 2 mg/Kg i.v.
Experimental: Surgical procedure. Sixty-four male Sprague-Dawley rats (200-250 g) were maintained on a purified laboratory diet and fasted for 24 hours prior to the experiment. The animals were initially anesthetized with pentobarbital (65 mg/kg body weight), then a tracheotomy was performed to facilitate breathing during the experiment. The right carotid artery was cannulated and systemic arterial pressure was measured with a Statham (Oxnard, Calif.) P23A pressure transducer connected to the carotid artery cannula. Systemic blood pressure and heart rate were continuously recorded with a Grass physiologic recorder (Grass Instruments, Massachusetts). The left jugular vein was also cannulated for drug administration and blood sample collection. After a midline abdominal incision a segment of the mid-jejunum was exteriorized. All exposed tissue was moistened with saline-soaked gauze to minimize evaporation and dehydration.
Intravital microscopy. Rats were placed in a supine position on an adjustable plexiglass microscope stage and the mesentery was draped over an optically clear coverslip that allowed for observation of a 2 cm^2 segment of tissue. The temperature of the pedestal was maintained at 37° C. with a constant temperature circulator (Fisher Scientific, model 80). A small rubber gasket (area=3.14 cm^2) was placed on the mesentery and the outside area of contact between the gasket and mesentery was sealed (to prevent leakage of superfusate from the ring) with a mixture of high vacuum grease (Dow Corning Corp., Midland, Mich.) and white petrolatum (E. Fougera & Co., Melville, N.Y.). Rectal and mesenteric temperatures were continuously monitored using an electrothermometer. The exposed bowel wall was covered with Saran Wrap (Dow Chemical Co., Indiana), and the mesenteric tissue within the gasket was suffused with warmed bicarbonate-buffered saline (BBS; pH 7.4) that was bubbled with a mixture of 5% O2; 5% CO2; 90% N2.
An inverted microscope (Nikon Optiphoto, Japan) with a ×40 objective lens (Nikon Optiphoto, Japan) and a ×10 eyepiece was used to observe the mesenteric microcirculation. The mesentery was transilluminated with a 12 V-100 W direct current-stabilized light source. A video camera (Hitachi, VK-C150, Japan) mounted on the microscope projected the image onto a color monitor (Sony, PVM-2030, Japan), and the images were recorded using a video cassette recorder (Panasonic, NV8950, Japan). A video time-date generator (Panasonic, WJ810, Japan) projected the time, date, and stopwatch function onto the monitor.
Single unbranched venules with diameters ranging between 25 μm and 35 μm and a length>150 μm were selected for study. Venular diameter (Dv) was measured either on- or off-line using a video image-shearing monitor (IPM, La Mesa, Calif.). The number of adherent leukocytes was determined off-line during playback of videotaped images. A leukocyte was considered to be adherent to venular endothelium if it remained stationary for a period equal to or greater than 30 seconds. Adherent cells were expressed as the number per 100 μm length of venule. The number of emigrated leukocytes was also determined off-line during playback of videotaped images. Ary interstitial leukocytes present in the mesentery at the onset of the experiment were subtracted from the total number of leukocytes that accumulated during the course of the experiment. Leukocyte emigration was expressed as the number per microscopic field (1.7×10^-2 mm^2) or 150 μm length of venule. Rolling leukocytes were defined as those white blood cells that moved at a velocity less than that of erythrocytes in the same stream. The flux of rolling leukocytes was determined as the number of rolling leukocytes which crossed a fixed point on the venule over a given period of time. Leukocyte rolling velocity was determined from the time required for a leukocyte to roll along a given distance of the venule.

recombinant E-selectin = target: T1, recombinant E-selectin (Homo sapiens, UniProt P16581); assay: HL-60 cell binding to recombinant E-selectin; type: cell-based; details: for inhibition of binding of HL-60 cells to recombinant E-selectin: FIG. 13
T1 sequence (P16581 22-556 limits assumed): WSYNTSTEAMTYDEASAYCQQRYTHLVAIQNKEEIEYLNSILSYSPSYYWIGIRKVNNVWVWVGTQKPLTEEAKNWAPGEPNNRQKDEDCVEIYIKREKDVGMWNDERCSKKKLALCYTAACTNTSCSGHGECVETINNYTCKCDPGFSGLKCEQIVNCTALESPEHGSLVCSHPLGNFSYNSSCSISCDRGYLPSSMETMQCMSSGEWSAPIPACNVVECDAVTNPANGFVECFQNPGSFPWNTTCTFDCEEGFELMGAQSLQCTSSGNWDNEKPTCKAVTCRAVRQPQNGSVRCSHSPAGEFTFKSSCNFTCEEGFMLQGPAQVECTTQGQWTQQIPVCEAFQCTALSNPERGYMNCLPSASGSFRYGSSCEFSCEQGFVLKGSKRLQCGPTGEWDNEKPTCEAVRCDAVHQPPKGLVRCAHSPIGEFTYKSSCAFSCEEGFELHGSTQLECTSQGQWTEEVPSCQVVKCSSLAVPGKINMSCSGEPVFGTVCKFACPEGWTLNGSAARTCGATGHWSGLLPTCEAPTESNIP
Experimental: In this assay recombinant soluble E-selectin is bound to the plastic surface of a 96 well ELISA plate. Dilutions of test compounds are added to the wells followed by HL-60 cells which bear the ligand for E-selectin. The cells are allowed to adhere to the E-selectin coated assay plate and the nonadherent cells are removed by washing the plate with an automated plate washer. Bound cells are quantitated by measuring the cellular enzyme myeloperoxidase. The concentration of oligosaccharide required to achieve 50% inhibition of control adhesion is used to compare analogs for potency.
Microflex III 96 well ELISA plates were coated with 50 μL of recombinant E-selectin (4 μg/mL) in Dulbecco's phosphate buffered saline (DPBS) and incubated at room temperature for 3 hours. The plates were then washed three times with 200 μL DPBS containing bovine serum albumin (10 mg/mL: DPBS-BSA) and incubated at room temperature for 60 minutes with DPBS-BSA.
Oligosaccharides to be tested were prepared in 1.5 mL eppendorf tubes by adding enough DPBS to make each sample a 10 mM solution according to its molecular weight. The pH was adjusted to be within 7.0 and 7.4.
After 30 minutes 2×10^5 HL-60 cells (10^7 /mL) were added and incubated for 15 minutes at room temperature. The unbound cells were removed by washing the plate 3 times with HBSS containing HEPES buffer (20 mM), glucose (0.2%), CaCl2 (1 mM) and BSA (10 mg/mL). After removal of the wash buffer the bound cells remaining were lysed by addition of Nonidet P 40 (0.1%) in 25 mM citrate/phosphate buffer. After 5 minutes 50 μL of o-phenylenediamine dihydrochloride (1 mg/mL) in citrate/phosphate buffer containing 0.001% hydrogen peroxide was added to each well. After 5 to 10 minutes the development of color was halted by the addition of 40 μL of H2 SO4. Color developed was measured in a plate reading spectrophotometer at 492 nm.

[2] = test system: IgG immune complex-induced acute lung injury; assay: IgG immune complex-induced acute lung injury in the rat; type: in vivo, rat (male Long-Evans); details: for effect on IgG immune complex-induced neutrophil accumulation / lung injury: conclusion in words
[3] = i.v. at 2.5, 3.0 and 3.5 h (FIG. 18), P<0.05

Row | SMILES | effect on leukocyte adherence induced by 10^-5 M histamine ([1]; 10 mg/Kg i.v.) | effect on histamine induced leukocyte rolling [1] | Erythrocyte velocity [1] | Leukocyte adherence [1] | Leukocyte emigration [1] | Venular diameter [1] | Wall shear rate [1] | inhibition of binding of HL-60 cells to recombinant E-selectin (recombinant E-selectin) | IC50 (recombinant E-selectin; read-out: IC50 for inhibition of HL-60 cell binding to recombinant E-selectin) | effect on lung MPO content ([2]; 50 μg (FIG. 19)) | effect on lung MPO content ([2]; 100, 200 and 300 μg (FIG. 19)) | effect on vascular permeability ([2]; all doses, 50-500 μg (FIG. 19)) | effect on IgG immune complex-induced neutrophil accumulation / lung injury [2] | reduction in MPO content [2, 3] | reduction in permeability [2, 3] | reduction in hemorrhage ([2]; i.v. at 2.5, 3.0 and 3.5 h (FIG. 18), P=N.S.) | effect on hemorrhage ([2]; two highest doses (FIG. 19)) | effect on hemorrhage ([2]; versus PBS treated animals) | effect on lung content of MPO ([2]; versus PBS treated animals) | effect on vascular permeability ([2]; versus PBS treated animals)
1 | CCO[C@@H]1O[C@H](CO)[C@H](O)[C@H](O[C@@H]2O[C@H](CO)[C@@H](O[C@@H]3O[C@H](CO)[C@H](O)[C@H](O[C@]4(C(=O)O)C[C@H](O)[C@@H](NC(C)=O)[C@H]([C@H](O)[C@H](O)CO)O4)[C@H]3O)[C@H](O[C@@H]3O[C@@H](C)[C@@H](O)[C@@H](O)[C@@H]3O)[C@H]2NC(C)=O)[C@H]1O [Z, Ethyl(sodium(5-acetamido-3,5-dideoxy-α-D-glycero-D-galacto-2-nonulopyanosylonate))-(2-3)-O-(β-D-galactopyranosyl)-(1-4)-O-((α-L-fucopyranosyl)-(1-3))-O-(2-acetamido-2-deoxy-β-D-glucopyranosyl)-(1-3)-O-β-D-galactopyranoside] | significantly attenuated | inhibited leukocyte rolling | 2.1 ± 0.2 mm/sec | 2.3 ± 1.9 per 100 μm | 2.0 ± 1.2 per field | 29 ± 0.2 μm | 355 ± 14 s⁻¹ | inhibited in a concentration dependent manner | ~500 µM | did not significantly reduce MPO content | significant reductions | significant reductions in vascular permeability | blocked IgG | 27% | 20% | 21% | statistically significant reductions in hemorrhage | – | – | –
2 | CC(=O)NC1C(O)OC(CO)C(OC2OC(CO)C(O)C(OC3(C(=O)O)CC(O)C(NC(C)=O)C(C(O)C(O)CO)O3)C2O)C1O (stereo not shown) [SLN, reference compound] | – | had no effect | 3.0 ± 0.5 mm/sec | 5.5 ± 1.4 per 100 μm | 4.8 ± 2.8 per field | 31 ± 2 μm | 495 ± 28 s⁻¹ | not | – | – | – | – | did not inhibit IgG immune complex induced lung injury | – | – | – | – | no decrease in hemorrhage | no decrease in lung content of MPO | no alteration in vascular permeability value
